Results: PubChem BioAssay AID248 (DTP/NCI, 2004)
“And” between values parts separate entries of the source, which are not always exact repeats. Identical values can stand only once. Inconclusive results and toxic doses are left out. Cut-off read from the data, not from the text of the source: active = T/C of 150% or more; inactive = T/C below 125%.

System: L1210 leukemia ip in BDF1 mice, survival T/C
Assay: NCI In Vivo Anticancer Drug Screen. Data for tumor model L1210 Leukemia (intraperitoneal) in B6D2F1 (BDF1) mice
Conditions: endpoint: mean survival time, higher = longer survival
Summary of the method: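 Value reflects the ratio of survival in compound-treated mice to survival in vehicle-treated controls, with both groups carrying the same transplanted tumor.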

[1] = dose: 100.0 mg/kg/injection, schedule: Q01DX001 (ip), vehicle: carboxymethylcellulose (CMC)
[2] = dose: 200.0 mg/kg/injection, schedule: Q01DX001 (ip), vehicle: carboxymethylcellulose (CMC)
[3] = dose: 400.0 mg/kg/injection, schedule: Q01DX001 (ip), vehicle: carboxymethylcellulose (CMC)
[4] = dose: 100.0 mg/kg/injection, schedule: Q04DX003 (ip), vehicle: saline with Tween-80
[5] = dose: 200.0 mg/kg/injection, schedule: Q04DX003 (ip), vehicle: saline with Tween-80
[6] = dose: 400.0 mg/kg/injection, schedule: Q04DX003 (ip), vehicle: saline with Tween-80
[7] = dose: 200.0 mg/kg/injection, schedule: Q01DX009 (ip), vehicle: Klucel (hydroxypropylcellulose) (HPC)
[8] = dose: 400.0 mg/kg/injection, schedule: Q01DX009 (ip), vehicle: Klucel (hydroxypropylcellulose) (HPC)
[9] = dose: 100.0 mg/kg/injection, schedule: Q04DX003 (ip), vehicle: saline
[10] = dose: 200.0 mg/kg/injection, schedule: Q04DX003 (ip), vehicle: saline
[11] = dose: 400.0 mg/kg/injection, schedule: Q04DX003 (ip), vehicle: saline
[12] = dose: 100.0 mg/kg/injection, schedule: Q04DX003 (ip), vehicle: Klucel (hydroxypropylcellulose) (HPC)
[13] = dose: 200.0 mg/kg/injection, schedule: Q04DX003 (ip), vehicle: Klucel (hydroxypropylcellulose) (HPC)
[14] = dose: 400.0 mg/kg/injection, schedule: Q04DX003 (ip), vehicle: Klucel (hydroxypropylcellulose) (HPC)
[15] = dose: 100.0 mg/kg/injection, schedule: Q01DX009 (ip), vehicle: saline

Measured: T/C

O=C1NC(=S)S/C1=C\c1ccncc1
inactive: dose: 50.0 mg/kg/injection, schedule: Q01DX001 (ip), vehicle: carboxymethylcellulose (CMC) 94 % of control | [1] 89 % of control | [2] 92 % of control | [3] 99 % of control

Cc1ccc(C)c(Cc2c(C=O)[nH]c(=S)[nH]c2=O)c1
inactive: [4] 97 % of control | [5] 101 % of control | [6] 110 % of control

O=C(NC(=S)Nc1nc(-c2ccccc2)cs1)c1ccccc1
inactive: dose: 100.0 mg/kg/injection, schedule: Q01DX001 (ip), vehicle: gum acacia 95 % of control | dose: 200.0 mg/kg/injection, schedule: Q01DX001 (ip), vehicle: gum acacia 103 % of control | dose: 400.0 mg/kg/injection, schedule: Q01DX001 (ip), vehicle: gum acacia 103 % of control

Cc1cc(OC(=O)NC2CCCCC2)cc(C)c1Cl
inactive: dose: 100.0 mg/kg/injection, schedule: Q01DX009 (ip), vehicle: Klucel (hydroxypropylcellulose) (HPC) 95 % of control | [7] 95 % of control | [8] 94 % of control

COc1ccc(OC)c(NC(=O)C2CC2)c1
inactive: [9] 94 % of control | [10] 99 % of control | [11] 103 % of control

CCOCCOCCOC(C)Oc1cc(OC)ccc1OC (stereo unspecified)
inactive: dose: 100.0 mg/kg/injection, schedule: Q04DX002 (ip), vehicle: saline 107 % of control | dose: 200.0 mg/kg/injection, schedule: Q04DX002 (ip), vehicle: saline 93 % of control | dose: 400.0 mg/kg/injection, schedule: Q04DX002 (ip), vehicle: saline 101 % of control

CC(=O)Oc1c(C)cccc1C(=O)O
inactive: [12] 92 % of control | [13] 103 % of control | [14] 88 % of control

O=C(O)CNCCN1CC(=O)N(c2ccccc2)C1=S
inactive: [1] 93 % of control | dose: 100.0 mg/kg/injection, schedule: Q01DX009 (ip), vehicle: carboxymethylcellulose (CMC) 94 % of control and 95 % of control | dose: 100.0 mg/kg/injection, schedule: Q04DX002 (ip), vehicle: carboxymethylcellulose (CMC) 97 % of control and 98 % of control | dose: 100.0 mg/kg/injection, schedule: Q04DX003 (ip), vehicle: carboxymethylcellulose (CMC) 98 % of control | [2] 98 % of control | dose: 200.0 mg/kg/injection, schedule: Q01DX009 (ip), vehicle: carboxymethylcellulose (CMC) 94 % of control and 90 % of control | dose: 200.0 mg/kg/injection, schedule: Q04DX002 (ip), vehicle: carboxymethylcellulose (CMC) 91 % of control | dose: 200.0 mg/kg/injection, schedule: Q04DX003 (ip), vehicle: carboxymethylcellulose (CMC) 93 % of control | [3] 95 % of control | dose: 400.0 mg/kg/injection, schedule: Q01DX009 (ip), vehicle: carboxymethylcellulose (CMC) 86 % of control | dose: 400.0 mg/kg/injection, schedule: Q04DX002 (ip), vehicle: carboxymethylcellulose (CMC) 97 % of control and 98 % of control | dose: 400.0 mg/kg/injection, schedule: Q04DX003 (ip), vehicle: carboxymethylcellulose (CMC) 89 % of control

CCCCC(NC(=O)CN)C(=O)O (stereo unspecified)
inactive: dose: 25.0 mg/kg/injection, schedule: Q01DX001 (ip), vehicle: Klucel (hydroxypropylcellulose) (HPC) 105 % of control | dose: 50.0 mg/kg/injection, schedule: Q01DX001 (ip), vehicle: Klucel (hydroxypropylcellulose) (HPC) 103 % of control | dose: 100.0 mg/kg/injection, schedule: Q01DX001 (ip), vehicle: Klucel (hydroxypropylcellulose) (HPC) 100 % of control

CN1CC(C)(C)C(=O)c2ccccc21
inactive: dose: 100.0 mg/kg/injection, schedule: Q04DX002 (ip), vehicle: other 95 % of control | dose: 200.0 mg/kg/injection, schedule: Q04DX002 (ip), vehicle: other 103 % of control | dose: 400.0 mg/kg/injection, schedule: Q04DX002 (ip), vehicle: other 103 % of control

CC(=O)c1ccccc1Br
inactive: [7] 100 % of control | [8] 97 % of control

CN(CCCl)Cc1ccccc1
inactive: dose: 8.2 mg/kg/injection, schedule: Q01DX Z (ip), vehicle: methylcellulose (MC) 107 % of control | dose: 18.8 mg/kg/injection, schedule: Q01DX Z (ip), vehicle: methylcellulose (MC) 109 % of control and 112 % of control | dose: 25.0 mg/kg/injection, schedule: Q01DX009 (ip), vehicle: Klucel (hydroxypropylcellulose) (HPC) 101 % of control | dose: 25.0 mg/kg/injection, schedule: Q01DX009 (ip), vehicle: saline 107 % of control | dose: 28.0 mg/kg/injection, schedule: Q01DX Z (ip), vehicle: methylcellulose (MC) 114 % of control and 121 % of control | dose: 50.0 mg/kg/injection, schedule: Q01DX009 (ip), vehicle: Klucel (hydroxypropylcellulose) (HPC) 112 % of control | dose: 50.0 mg/kg/injection, schedule: Q01DX009 (ip), vehicle: saline 103 % of control | dose: 50.0 mg/kg/injection, schedule: Q04DX003 (ip), vehicle: Klucel (hydroxypropylcellulose) (HPC) 101 % of control | dose: 63.0 mg/kg/injection, schedule: Q01DX Z (ip), vehicle: methylcellulose (MC) 87 % of control | [15] 97 % of control | [12] 108 % of control

CSc1nc(N)nc2c1nc(SC)n2C1OC(CO)C(O)C1O (stereo unspecified)
inactive: dose: 100.0 mg/kg/injection, schedule: Q01DX005 (ip), vehicle: saline 102 % of control | dose: 200.0 mg/kg/injection, schedule: Q01DX005 (ip), vehicle: saline 94 % of control

CCC(C)(C)ON=O
inactive: dose: 100.0 mg/kg/injection, schedule: Q04DX002 (ip), vehicle: saline with Tween-80 107 % of control | dose: 200.0 mg/kg/injection, schedule: Q04DX002 (ip), vehicle: saline with Tween-80 100 % of control | dose: 400.0 mg/kg/injection, schedule: Q04DX002 (ip), vehicle: saline with Tween-80 96 % of control

CCN(CC)C(=O)/C=C\c1ccccc1
inactive: dose: 50.0 mg/kg/injection, schedule: Q01DX009 (ip), vehicle: saline with Tween-80 102 % of control | dose: 100.0 mg/kg/injection, schedule: Q01DX009 (ip), vehicle: saline with Tween-80 102 % of control | dose: 200.0 mg/kg/injection, schedule: Q01DX009 (ip), vehicle: saline with Tween-80 112 % of control

O=C(O)CCc1c2ccc(=O)cc-2oc2cc(O)ccc12
inactive: [12] 91 % of control | [13] 91 % of control | [14] 92 % of control

FC(F)(F)C(F)(Cl)C(Cl)(Cl)C(F)(F)F (stereo unspecified)
inactive: [15] 97 % of control | [9] 100 % of control | dose: 200.0 mg/kg/injection, schedule: Q01DX009 (ip), vehicle: saline 97 % of control | [10] 101 % of control | dose: 400.0 mg/kg/injection, schedule: Q01DX009 (ip), vehicle: saline 97 % of control | [11] 90 % of control

COc1cc2c(cc1NC(=O)C(F)(F)F)-c1ccc(NC(=O)C(F)(F)F)cc1C2
inactive: dose: 75.0 mg/kg/injection, schedule: Q01DX001 (ip), vehicle: carboxymethylcellulose (CMC) 88 % of control | dose: 150.0 mg/kg/injection, schedule: Q01DX001 (ip), vehicle: carboxymethylcellulose (CMC) 98 % of control | dose: 300.0 mg/kg/injection, schedule: Q01DX001 (ip), vehicle: carboxymethylcellulose (CMC) 90 % of control

CN(C)C(=O)Nc1cccc(OC(=O)NC2CCCCCCC2)c1
inactive: [4] 91 % of control | [5] 100 % of control | [6] 96 % of control
